Test results as given in the supplement of paper PMC11451515.

How the values were obtained:
Conditions in all cases: 48 h
NOMO1 [1] = assay: cell viability relative to DMSO control; higher = less cytotoxic
In short: (§1)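 Leukemia cells (NOMO1 or SEM, 500 cells/well; P12-Ichikawa, 1000 cells/well) were seeded in 5 μl in 1536-well plates after at least four passages of adaptation to each medium. They received library compounds in DMSO by pin dosing, 11 threefold points from 47 μM to 0.79 nM. Luminescence with CellTiter-Glo One was read after 48 h at 37°C. Viability is stated per plate relative to DMSO wells, with cell-free wells as background.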

P12-Ichikawa [2] = assay: as above
In short: as §1

SEM cells [3] = assay: as above
In short: as §1

SEM cells [4] = assay: AUC of viability dose-response curve (% viability x log10 dose units); higher = less sensitive
In short: (§2)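 Library compounds in DMSO were applied for 48 h at 37°C at 11 threefold doses (47 μM to 0.79 nM) to medium-adapted leukemia cells in 1536-well plates holding 500 or 1000 cells/well. Luminescence from CellTiter-Glo One was normalised plate by plate against DMSO and cell-free wells. Area under the curve came from trapezoidal integration of a log-logistic fit, after scaling curves that rose above full viability and discarding those that failed quality control. The fit had four parameters and used log10 doses.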

NOMO1 [5] = assay: as above
In short: as §2

P12-Ichikawa [6] = assay: as above
In short: as §2

CSCC[C@@H](NC(=O)[C@@H](Cc1ccccc1)NC(=O)CNC(=O)CNC(=O)[C@@H](N)Cc1ccc(O)cc1)C(=O)O
cell viability [%]
Conditions	NOMO1 [1]	P12-Ichikawa [2]	SEM cells [3]
HPLM + 10% dialyzed FBS, 0.000781 µM	77.4	84.4	73.5
HPLM + 10% dialyzed FBS, 0.00234 µM	90.8	96.7	44.7
HPLM + 10% dialyzed FBS, 0.00702 µM	110	105	93
HPLM + 10% dialyzed FBS, 0.0211 µM	28.1	11	22
HPLM + 10% dialyzed FBS, 0.0632 µM	110	113	106
HPLM + 10% dialyzed FBS, 0.19 µM	121	102	103
HPLM + 10% dialyzed FBS, 0.569 µM	121	112	94.9
HPLM + 10% dialyzed FBS, 1.71 µM	104	104	102
HPLM + 10% dialyzed FBS, 5.12 µM	92	105	98.9
HPLM + 10% dialyzed FBS, 15.4 µM	100	120	91.6
HPLM + 10% dialyzed FBS, 46.1 µM	109	115	99.6
RPMI 5 mM glucose + 10% FBS, 0.000781 µM	91.8	82.2	72.6
RPMI 5 mM glucose + 10% FBS, 0.00234 µM	89.3	91.9	25.7
RPMI 5 mM glucose + 10% FBS, 0.00702 µM	105	101	80.9
RPMI 5 mM glucose + 10% FBS, 0.0211 µM	22.1	12.6	15.5
RPMI 5 mM glucose + 10% FBS, 0.0632 µM	110	107	103
RPMI 5 mM glucose + 10% FBS, 0.19 µM	103	105	104
RPMI 5 mM glucose + 10% FBS, 0.569 µM	102	104	90.5
RPMI 5 mM glucose + 10% FBS, 1.71 µM	100	111	107
RPMI 5 mM glucose + 10% FBS, 5.12 µM	95.4	99.8	96.6
RPMI 5 mM glucose + 10% FBS, 15.4 µM	101	101	99.9
RPMI 5 mM glucose + 10% FBS, 46.1 µM	97.9	102	120
RPMI 5 mM glucose + 10% dialyzed FBS, 0.000781 µM	87.1	85.1	81.9
RPMI 5 mM glucose + 10% dialyzed FBS, 0.00234 µM	97.4	88.1	38.3
RPMI 5 mM glucose + 10% dialyzed FBS, 0.00702 µM	94.6	94.1	102
RPMI 5 mM glucose + 10% dialyzed FBS, 0.0211 µM	34.8	24.3	20.9
RPMI 5 mM glucose + 10% dialyzed FBS, 0.0632 µM	88.3	101	95.6
RPMI 5 mM glucose + 10% dialyzed FBS, 0.19 µM	103	98.7	103
RPMI 5 mM glucose + 10% dialyzed FBS, 0.569 µM	97.6	104	92.3
RPMI 5 mM glucose + 10% dialyzed FBS, 1.71 µM	111	101	99.7
RPMI 5 mM glucose + 10% dialyzed FBS, 5.12 µM	99.9	102	106
RPMI 5 mM glucose + 10% dialyzed FBS, 15.4 µM	113	97.9	103
RPMI 5 mM glucose + 10% dialyzed FBS, 46.1 µM	109	109	99.8

SEM cells [4]
Conditions	AUC of viability dose-response curve
HPLM + 10% dialyzed FBS	406
RPMI 5 mM glucose + 10% FBS	389
RPMI 5 mM glucose + 10% dialyzed FBS	409

CC(C)(C(=O)NCC(F)(F)C(F)(F)F)C(=O)N[C@@H]1C(=O)Nc2ccccc2-c2ccccc21
cell viability [%], SEM cells [3]
Conditions	HPLM + 10% dialyzed FBS	RPMI 5 mM glucose + 10% FBS
0.000781 µM	99.6	96.8
0.00234 µM	113	127
0.00702 µM	120	120
0.0211 µM	128	133
0.0632 µM	127	122
0.19 µM	119	128
0.569 µM	119	130
1.71 µM	123	108
5.12 µM	126	124
15.4 µM	129	72.7
46.1 µM	3.02	3.52

AUC of viability dose-response curve
Conditions	HPLM + 10% dialyzed FBS	RPMI 5 mM glucose + 10% FBS	RPMI 5 mM glucose + 10% dialyzed FBS
NOMO1 [5]	366	337	363
SEM cells [4]	452	435	452

C=CC[C@@H]1/C=C(\C)C[C@H](C)C[C@H](OC)[C@H]2O[C@@](O)(C(=O)C(=O)N3CCCC[C@H]3C(=O)O[C@H](/C(C)=C/[C@@H]3CC[C@@H](O)[C@H](OC)C3)[C@H](C)[C@@H](O)CC1=O)[C@H](C)C[C@@H]2OC
SEM cells [3], HPLM + 10% dialyzed FBS
Conditions	cell viability [%]
0.000781 µM	102
0.00234 µM	125
0.00702 µM	131
0.0211 µM	123
0.0632 µM	115
0.19 µM	111
0.569 µM	107
1.71 µM	74.9
5.12 µM	60.9
15.4 µM	30.8
46.1 µM	100

AUC of viability dose-response curve
Conditions	NOMO1 [5]	P12-Ichikawa [6]	SEM cells [4]
HPLM + 10% dialyzed FBS	412	466	400
RPMI 5 mM glucose + 10% FBS	453	448	376
RPMI 5 mM glucose + 10% dialyzed FBS	436	449	362

CC(C)(C)c1[nH]cnc1/C=c1\[nH]c(=O)/c(=C/c2ccccc2)[nH]c1=O
cell viability [%]
Conditions	NOMO1 [1]	P12-Ichikawa [2]	SEM cells [3]
HPLM + 10% dialyzed FBS, 0.000781 µM	101	115	102
HPLM + 10% dialyzed FBS, 0.00234 µM	76.7	80	69
HPLM + 10% dialyzed FBS, 0.00702 µM	31	22.5	20
HPLM + 10% dialyzed FBS, 0.0211 µM	46	18.4	23.9
HPLM + 10% dialyzed FBS, 0.0632 µM	52.7	12	24.3
HPLM + 10% dialyzed FBS, 0.19 µM	37.5	9.79	25.5
HPLM + 10% dialyzed FBS, 0.569 µM	42.1	7.81	24.3
HPLM + 10% dialyzed FBS, 1.71 µM	32.5	3.5	7.62
HPLM + 10% dialyzed FBS, 5.12 µM	20.3	2.31	4.47
HPLM + 10% dialyzed FBS, 15.4 µM	22.1	2.32	4.16
HPLM + 10% dialyzed FBS, 46.1 µM	5.6	2.23	3.59
RPMI 5 mM glucose + 10% FBS, 0.000781 µM	128	100	117
RPMI 5 mM glucose + 10% FBS, 0.00234 µM	109	97	85.4
RPMI 5 mM glucose + 10% FBS, 0.00702 µM	24.3	16.3	16.6
RPMI 5 mM glucose + 10% FBS, 0.0211 µM	24.5	26.5	14
RPMI 5 mM glucose + 10% FBS, 0.0632 µM	28.9	17.8	16.1
RPMI 5 mM glucose + 10% FBS, 0.19 µM	23.9	8.22	17.9
RPMI 5 mM glucose + 10% FBS, 0.569 µM	24.9	5.98	12.1
RPMI 5 mM glucose + 10% FBS, 1.71 µM	17.4	3.28	4.12
RPMI 5 mM glucose + 10% FBS, 5.12 µM	18.4	2.14	3.51
RPMI 5 mM glucose + 10% FBS, 15.4 µM	14.6	1.52	2.93
RPMI 5 mM glucose + 10% FBS, 46.1 µM	6.53	1.95	2.89
RPMI 5 mM glucose + 10% dialyzed FBS, 0.000781 µM	103	103	106
RPMI 5 mM glucose + 10% dialyzed FBS, 0.00234 µM	105	110	80
RPMI 5 mM glucose + 10% dialyzed FBS, 0.00702 µM	24.9	32.7	17.5
RPMI 5 mM glucose + 10% dialyzed FBS, 0.0211 µM	26.2	36.8	21.2
RPMI 5 mM glucose + 10% dialyzed FBS, 0.0632 µM	29.5	25	23.4
RPMI 5 mM glucose + 10% dialyzed FBS, 0.19 µM	27.8	15.7	21.4
RPMI 5 mM glucose + 10% dialyzed FBS, 0.569 µM	30.6	14.2	19.5
RPMI 5 mM glucose + 10% dialyzed FBS, 1.71 µM	20.8	4.42	4.68
RPMI 5 mM glucose + 10% dialyzed FBS, 5.12 µM	23.2	4.87	3.49
RPMI 5 mM glucose + 10% dialyzed FBS, 15.4 µM	16.5	2.24	3.56
RPMI 5 mM glucose + 10% dialyzed FBS, 46.1 µM	3.92	2.04	3.02

NOMO1 [5]
Conditions	AUC of viability dose-response curve
HPLM + 10% dialyzed FBS	200
RPMI 5 mM glucose + 10% FBS	129
RPMI 5 mM glucose + 10% dialyzed FBS	160
